# Source: patent publication US20230084144A1, “THERAPEUTIC COMBINATIONS OF DRUGS AND METHODS OF USING THEM” (ConSynance Therapeutics, Inc., priority 2020, published 2023)
# Where “and” joins values, the source holds several entries; their conditions need not be identical. Equal entries are not always repeated.
# Tests used:
# [1] = Plasma concentrations at midpoint time of post dosing PET scans; assay type: in vivo, human; conditions: healthy males
# Experimental: (§1) A LC-MS/MS method was developed and validated for the quantitation of Formula I in 0.250 mL of human EDTA plasma in a total of 7 runs, out of which 1 run was rejected. The method utilized stable labeled Formula I as an internal standard. After the addition of the internal standard (equivalent to 285.4 ng/mL in human EDTA plasma) and 0.250 mL of each quality control (QC) sample and calibration standard, 0.525 mL of methyl t-butyl ether (MTBE) was added to the 96-well sample tubes. The organic layer was removed and evaporated to dryness using a liquid-liquid extraction (LLE). The residue was reconstituted and injected into the LC-MS/MS system. Chromatographic separation was achieved through gradient elution on an Acquity UPLC, BEH Shield RP18™, 50 × 2.1 mm, 1.7 µm particle size column. The mobile phase contained water, acetonitrile, ammonium formate, and formic acid. Detection was accomplished using a Sciex API 4000 tandem mass spectrometer in positive ion electrospray SRM mode. The standard curves, which ranged from 1.00 to 1000 ng/mL for Formula I, were fitted to a ⅟x2 weighted linear regression model. The intra-assay precisions, based on four levels of analytical QCs (low, mid, GM, and high), were within 4.2% CV and inter-assay precisions were within 7.2% CV for the analyte. The assay accuracy, expressed as %DEV, was within 6.4% of the nominal concentration values for the analyte. […] The LLOQ response ratio, when compared to the QC0 response ratio, was ≥ 5 in all matrix lots. The analyte was stable in human EDTA plasma for at least 24 h at room temperature, for at least 14 days at -20° C., and following at least 3 freeze- thaw cycles. The processed samples were stable for 72 hours (h) at room temperature.
# (§2) Striatal receptor occupancy at dopamine transporters (DAT) and serotonin transporters (SERT) with plasma concentrations of Formula I at the midpoint time of the post dosing PET (positron emission tomography) scans (T=4 and 24) after once-a-day multiple doses of 3-60 mg and 10-60 mg for SERT and DAT healthy male cohorts, respectively (Tables below, RO stands for receptor occupancy). Post dosing PET scans were conducted at day 10 (4 h post last dose) and day 14 (24 h post last dose) assuming steady state conditions, using the specific DAT and SERT tracers ^11 C-PE2I and ^11 C-MADAM, respectively. For 45 mg and 60 mg cohorts, there was titration by administration of 30 mg for 3 days and then from day 4 the specified dose. Representative reports on using these two tracers are Learned-Coughlin SM et al, Biol Psychiatry.2003, 54(8):800-5; Jucaite A et al, Eur J Nucl Med Mol Imaging. 2006, 33(6):657-68; and Lundberg J et al, Int J Neuropsychopharmacol. 2007, 10(6):777-85.
# [2] = Stability in human EDTA plasma (LC-MS/MS validation); assay type: in vitro ADME
# Experimental: as §1
# [3] = biological target: T1, Transporter, Norepinephrine (NET) (Homo sapiens, UniProt P23975); test: Radioligand binding, Transporter, Norepinephrine (NET) (Eurofin Discovery 204410); conditions: 100 nM compound
# T1 construct: host or cells: MDCK cells
# T1 sequence (P23975 whole entry): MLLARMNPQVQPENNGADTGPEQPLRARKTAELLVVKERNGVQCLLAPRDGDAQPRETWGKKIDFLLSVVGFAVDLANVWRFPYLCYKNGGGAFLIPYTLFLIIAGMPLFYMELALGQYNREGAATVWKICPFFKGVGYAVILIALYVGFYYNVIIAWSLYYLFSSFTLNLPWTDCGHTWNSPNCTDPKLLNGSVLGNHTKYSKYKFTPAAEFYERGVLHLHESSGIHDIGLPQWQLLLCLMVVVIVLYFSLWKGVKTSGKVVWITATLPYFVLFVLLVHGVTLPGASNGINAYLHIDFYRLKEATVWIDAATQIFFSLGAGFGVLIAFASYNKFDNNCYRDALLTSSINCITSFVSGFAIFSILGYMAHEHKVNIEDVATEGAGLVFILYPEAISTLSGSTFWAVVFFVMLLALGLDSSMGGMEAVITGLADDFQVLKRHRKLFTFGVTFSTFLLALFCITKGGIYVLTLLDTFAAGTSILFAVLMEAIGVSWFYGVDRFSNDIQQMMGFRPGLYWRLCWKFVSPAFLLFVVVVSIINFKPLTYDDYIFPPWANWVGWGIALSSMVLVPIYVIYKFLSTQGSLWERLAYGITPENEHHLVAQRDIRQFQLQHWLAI
# [4] = biological target: T2, Transporter, Dopamine (DAT) (Homo sapiens, UniProt Q01959); test: Radioligand binding, Transporter, Dopamine (DAT) (Eurofin Discovery 220320); conditions: 100 nM compound
# T2 construct: host or cells: CHO-S cells
# T2 sequence (Q01959 whole entry): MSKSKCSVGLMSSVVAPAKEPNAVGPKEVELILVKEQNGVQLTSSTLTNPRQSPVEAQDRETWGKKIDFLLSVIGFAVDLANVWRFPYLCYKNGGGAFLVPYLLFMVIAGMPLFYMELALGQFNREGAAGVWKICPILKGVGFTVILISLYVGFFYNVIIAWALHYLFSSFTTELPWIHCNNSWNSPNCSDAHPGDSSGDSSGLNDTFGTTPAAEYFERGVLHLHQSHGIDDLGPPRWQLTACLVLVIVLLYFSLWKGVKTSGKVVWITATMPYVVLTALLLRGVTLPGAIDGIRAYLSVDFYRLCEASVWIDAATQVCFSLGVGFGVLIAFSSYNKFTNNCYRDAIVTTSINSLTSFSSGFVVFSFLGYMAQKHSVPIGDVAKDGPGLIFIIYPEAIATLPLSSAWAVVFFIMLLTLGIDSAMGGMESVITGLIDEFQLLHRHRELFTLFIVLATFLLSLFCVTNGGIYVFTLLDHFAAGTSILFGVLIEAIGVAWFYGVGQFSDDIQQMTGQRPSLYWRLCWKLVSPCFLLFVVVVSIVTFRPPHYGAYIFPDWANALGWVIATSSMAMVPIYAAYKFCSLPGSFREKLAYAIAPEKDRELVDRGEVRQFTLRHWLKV
# [5] = Population PK model (3-compartment) on human PK data; conditions: healthy volunteers, 3-compartment population PK model
# Text: In alternative embodiments, provided are pharmacokinetic modeling and simulation methods for Formula I, comprising using human PK data, as described sequentially in FIG. 25 to FIG. 29. A 3-compartment model best described the human PK data. Between-patient variability in healthy volunteers were 20.2%.
# [6] = biological target: T3, serotonin transporters (SERT) (Homo sapiens, UniProt P31645); test: PET receptor occupancy at SERT, tracer 11C-MADAM; assay type: in vivo; conditions: for SERT RO%: healthy males
# T3 construct: from tissue; host or cells: brain (striatum, thalamus) of healthy male volunteers, in vivo PET
# T3 sequence (P31645 whole entry): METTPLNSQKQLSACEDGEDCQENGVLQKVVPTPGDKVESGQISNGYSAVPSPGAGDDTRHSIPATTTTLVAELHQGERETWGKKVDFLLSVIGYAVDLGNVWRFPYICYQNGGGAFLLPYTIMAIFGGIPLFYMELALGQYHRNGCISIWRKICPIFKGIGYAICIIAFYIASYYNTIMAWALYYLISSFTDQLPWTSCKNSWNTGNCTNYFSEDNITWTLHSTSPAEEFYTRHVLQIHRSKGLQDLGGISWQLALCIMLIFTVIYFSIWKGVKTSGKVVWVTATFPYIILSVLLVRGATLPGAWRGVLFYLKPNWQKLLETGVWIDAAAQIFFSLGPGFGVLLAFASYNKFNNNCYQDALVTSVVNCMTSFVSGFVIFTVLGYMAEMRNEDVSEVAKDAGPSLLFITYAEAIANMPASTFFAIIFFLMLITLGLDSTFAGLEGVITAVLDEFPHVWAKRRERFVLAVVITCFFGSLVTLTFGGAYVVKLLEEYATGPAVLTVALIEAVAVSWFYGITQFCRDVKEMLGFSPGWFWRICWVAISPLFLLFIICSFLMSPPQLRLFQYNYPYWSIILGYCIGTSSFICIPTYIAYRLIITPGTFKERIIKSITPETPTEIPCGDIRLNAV
# Text: (§3) The PET study was a part of a strategy in previous clinical development of the compound of formula I to evaluate in healthy male volunteers with respect to safety, tolerability and pharmacokinetics as well as DAT and SERT occupancy.
# (§4) The relationship between plasma the compound of formula I concentration and SERT occupancies, using the individual values, is presented in FIG. 8 and FIG. 9. The numeric values for the individual SERT and […] occupancy and the corresponding plasma concentrations are tabulated in Example 12.
# as §2
# [7] = biological target: T4, dopamine transporters (DAT) (Homo sapiens, UniProt Q01959); test: PET striatal receptor occupancy at DAT, tracer 11C-PE2I; assay type: in vivo; conditions: following multiple doses of 60 mg, PET study in healthy males
# T4 construct: from tissue; host or cells: striatum of healthy male volunteers, in vivo PET
# T4 sequence (Q01959 whole entry): as the sequence (Q01959 whole entry) above
# Text: as §3, §4
# as §2, with “Representative reports on using these two tracers are Learned-Coughlin SM et al, Biol Psychiatry.2003, 54(8):800-5; Jucaite A et al, Eur J Nucl Med Mol Imaging. 2006, 33(6):657-68; and Lundberg J et al, Int J Neuropsychopharmacol. 2007, 10(6):777-85.” left out
# [8] = 14-day once-a-day oral multiple ascending dose PK study; assay type: in vivo, human; parameters: AUC: unit not given here
# Text: Tabulated, day-14 PK data (Cmax, Ctrough and AUC) for healthy humans in a 14-day, once-a-day oral dosing, multiple ascending dose study of compound of Formula I.
smiles,measurement,setting,value
"Clc1ccc(C2CNCc3cc(-c4ccc5ncnn5c4)ccc32)cc1Cl (stereo not drawn) [Formula I, 7-([1,2,4]triazolo[1,5-a]pyridin-6-yl)-4-(3,4-dichlorophenyl)-1,2,3,4-tetrahydroisoquinoline]",Formula I plasma concentration,"[1]; DAT cohort, 10 mg once-a-day, day 10, 4 h",214 ng/mL and 173 ng/mL
same,Formula I plasma concentration,"[1]; DAT cohort, 10 mg once-a-day, day 14, 24 h",149 ng/mL and 147 ng/mL
same,Formula I plasma concentration,"[1]; DAT cohort, 45 mg once-a-day, day 10, 4 h",924 ng/mL and 905 ng/mL
same,Formula I plasma concentration,"[1]; DAT cohort, 45 mg once-a-day, day 14, 24 h",668 ng/mL and 673 ng/mL
same,Formula I plasma concentration,"[1]; DAT cohort, 60 mg once-a-day, day 10, 4 h",1263 ng/mL
same,Formula I plasma concentration,"[1]; DAT cohort, 60 mg once-a-day, day 14, 24 h",991 ng/mL
same,Formula I plasma concentration,"[1]; SERT cohort, 3 mg once-a-day, day 10, 4 h",64 ng/mL and 63 ng/mL
same,Formula I plasma concentration,"[1]; SERT cohort, 3 mg once-a-day, day 14, 24 h",45 ng/mL and 42 ng/mL
same,Formula I plasma concentration,"[1]; SERT cohort, 10 mg once-a-day, day 10, 4 h",184 ng/mL and 212 ng/mL
same,Formula I plasma concentration,"[1]; SERT cohort, 10 mg once-a-day, day 14, 24 h",129 ng/mL and 156 ng/mL
same,Formula I plasma concentration,"[1]; SERT cohort, 30 mg once-a-day, day 10, 4 h",847 ng/mL and 667 ng/mL
same,Formula I plasma concentration,"[1]; SERT cohort, 30 mg once-a-day, day 14, 24 h",434 ng/mL and 567 ng/mL
same,Formula I plasma concentration,"[1]; SERT cohort, 45 mg once-a-day, day 10, 4 h",1191 ng/mL and 1105 ng/mL
same,Formula I plasma concentration,"[1]; SERT cohort, 45 mg once-a-day, day 14, 24 h",904 ng/mL and 895 ng/mL
same,stable in human EDTA plasma following freeze-thaw cycles,[2],at least 3 freeze- thaw cycles
same,stable in human EDTA plasma at -20° C.,[2]; -20° C.,at least 14 days
same,processed samples stable at room temperature,"[2]; processed (extracted) samples, room temperature",72 h
same,stable in human EDTA plasma at room temperature,[2]; room temperature,at least 24 h
same,inhibition at 0.1 µM,[3],84%
same,inhibition at 0.1 µM,[4],92%
same,Between-patient variability,[5],20.2%
same,SERT RO%,"[6]; 10 mg once-a-day, day 10, 4 h post last dose",53% and 52%
same,SERT RO%,"[6]; 10 mg once-a-day, day 14, 24 h post last dose",47% and 48% and 51%
same,SERT RO%,"[6]; 30 mg once-a-day, day 10, 4 h post last dose",71% and 72% and 74%
same,SERT RO%,"[6]; 30 mg once-a-day, day 14, 24 h post last dose",69% and 66% and 67%
same,SERT RO%,"[6]; 45 mg once-a-day, day 10, 4 h post last dose",73% and 74% and 75%
same,SERT RO%,"[6]; 45 mg once-a-day, day 14, 24 h post last dose",73% and 75% and 78%
same,SERT RO%,"[6]; 60 mg once-a-day, day 10, 4 h post last dose",70% and 61% and 76%
same,SERT RO%,"[6]; 60 mg once-a-day, day 14, 24 h post last dose",76% and 72% and 77%
same,SERT occupancy,"[6]; multiple doses of 30-60 mg at steady state, healthy male volunteers",65-75%
same,DAT occupancies,[7],≤ 60%
same,DAT occupancies,[7]; listed as formula I,up to 60%
same,"Formula I plasma concentration (ng/ml), Cmax","[8]; healthy person alpha, 3 mg daily oral, day 14, Cmax (blood draw 1-3 h)",64 ng/mL and 67 ng/mL and 63 ng/mL and 77 ng/mL and 74 ng/mL
same,Formula I plasma concentration,"[8]; healthy person alpha, 3 mg daily oral, day 14, blood draw 0 h",36 ng/mL and 40 ng/mL and 31 ng/mL and 51 ng/mL and 44 ng/mL
same,Formula I plasma concentration,"[8]; healthy person alpha, 3 mg daily oral, day 14, blood draw about 23-24 h",38 ng/mL and 42 ng/mL and 34 ng/mL and 48 ng/mL and 50 ng/mL
same,AUC,"[8]; healthy person alpha, 3 mg daily oral, day 14, printed in row of 23-24 h blood draw",369 and 414 and 338 and 525 and 439 and 374
same,"Formula I plasma concentration (ng/ml), Cmax","[8]; healthy person alpha, 10 mg daily oral, day 14, Cmax (blood draw 1-3 h)",249 ng/mL and 243 ng/mL and 285 ng/mL and 259 ng/mL and 242 ng/mL
same,Formula I plasma concentration,"[8]; healthy person alpha, 10 mg daily oral, day 14, blood draw 0 h",127 ng/mL and 134 ng/mL and 183 ng/mL and 155 ng/mL and 147 ng/mL
same,Formula I plasma concentration,"[8]; healthy person alpha, 10 mg daily oral, day 14, blood draw about 23-24 h",130 ng/mL and 140 ng/mL and 138 ng/mL and 178 ng/mL and 160 ng/mL and 162 ng/mL
same,AUC,"[8]; healthy person alpha, 10 mg daily oral, day 14, printed in row of 23-24 h blood draw",1263 and 1447 and 1302 and 1925 and 1884 and 1985
same,"Formula I plasma concentration (ng/ml), Cmax","[8]; healthy person alpha, 45 mg daily oral, day 14, Cmax (blood draw 1-2 h)",1570 ng/mL and 1394 ng/mL and 1579 ng/mL and 1348 ng/mL and 1808 ng/mL
same,Formula I plasma concentration,"[8]; healthy person alpha, 45 mg daily oral, day 14, blood draw 0 h",866 ng/mL and 695 ng/mL and 862 ng/mL and 791 ng/mL and 957 ng/mL
same,Formula I plasma concentration,"[8]; healthy person alpha, 45 mg daily oral, day 14, blood draw 23 h",890 ng/mL and 693 ng/mL and 941 ng/mL and 779 ng/mL and 924 ng/mL
same,AUC,"[8]; healthy person alpha, 45 mg daily oral, day 14, printed in row of 23 h blood draw",6276 and 8418 and 6879 and 8712 and 8687 and 9833
same,"Formula I plasma concentration (ng/ml), Cmax","[8]; healthy person beta, 45 mg daily oral, day 14, Cmax (blood draw 1-3 h)",1465 ng/mL and 1198 ng/mL and 1313 ng/mL and 1713 ng/mL and 2112 ng/mL
same,Formula I plasma concentration,"[8]; healthy person beta, 45 mg daily oral, day 14, blood draw 0 h",832 ng/mL and 732 ng/mL and 714 ng/mL and 973 ng/mL and 1274 ng/mL
same,Formula I plasma concentration,"[8]; healthy person beta, 45 mg daily oral, day 14, blood draw about 24 h",929 ng/mL and 649 ng/mL and 749 ng/mL and 1033 ng/mL and 1249 ng/mL
same,AUC,"[8]; healthy person beta, 45 mg daily oral, day 14, printed in row of 24 h blood draw",10113 and 9936 and 6959 and 8066 and 11276 and 12977
